Assay: in vitro
Conditions: human, hela cells, % viability

Going from Cc1cnc(NC(=O)C(C)Oc2ccccc2)s1 (stereo not drawn) [CBK288250] to CCc1ccccc1NC(=S)Nc1cccc(C)n1 [CBK288415], the viability at 28.5 h, 10 µM falls from 108% to 103%.

Going from O=C(Nc1ccc2n(c1=O)C[C@@H]1CNC[C@H]2C1)c1ccncc1 [CBK289177] to O=C(Nc1cccc(N2CCNCC2)c1)c1cccnc1 [CBK029414T], the viability at 28.5 h, 10 µM falls from 107% to 94.6%.

First: Cc1cccnc1NC(=O)C1CCCN1S(=O)(=O)c1ccc(Cl)cc1 (stereo not drawn) [CBK269914]
Second: CS(=O)(=O)Nc1ccc(C(=O)Nc2ccc(S(=O)(=O)N3CCCC3)cc2)cc1 [CBK268592]
The viability at 28.5 h, 10 µM of the first is lower: 83.2% for the first, 116% for the second.

Going from Cc1cc2oc(C(=O)Nc3sc4c(c3C(=O)NC3CCS(=O)(=O)C3)CCC(C)C4)c(C)c2cc1C (stereo not drawn) [CBK266351] to Cc1cc(C)cc(C(=O)NC(=S)Nc2sc(C)c(C)c2C#N)c1 [CBK267089], the viability at 28.5 h, 10 µM falls from 92.2% to 92.1%.

First: COC(=O)c1cc(C)sc1NC(=S)Nc1ccn(Cc2ccc(Br)cc2)n1 [CBK266934]
Second: COc1ccccc1NC(=O)c1cn(Cc2ccc(N)cc2)cn1 [CBK288045]
The viability at 28.5 h, 10 µM of the first is higher: 99.6% for the first, 99.5% for the second.

Compared with Cc1nn(C)cc1C(=O)NC(Cc1ccsc1)c1cccnc1 (stereo not drawn) [CBK285392], c1cncc(CNc2nccnc2-c2ccsc2)c1 [CBK089314] is higher in viability at 28.5 h, 10 µM: 109% for the first, 113% for the second.

Compared with COc1ccc(NC(=O)c2ccccc2CCc2ccccc2)c([N+](=O)[O-])c1 [CBK268632], CC1(CCc2ccccc2)NC(=O)N(CC(=O)c2ccc(-c3ccccc3)cc2)C1=O (stereo not drawn) [CBK297114] is higher in viability at 28.5 h, 10 µM: 97% for the first, 107% for the second.

Compared with CN(C)c1nc(-c2ccc3c(c2)CCCN3S(C)(=O)=O)cs1 [CBK305016], Cn1nc(-c2ccccc2)cc1[C@H]1CN2CC[C@H]1C[C@@H]2CNS(C)(=O)=O [CBK289096] is higher in viability at 28.5 h, 10 µM: 87.1% for the first, 99.2% for the second.

First: Cc1nnc(O)c2c(C)n(-c3ccc(Br)cc3)nc12 [CBK008726]
Second: Nn1c(SCc2ccc(Br)cc2)nnc1-c1ccccn1 [CBK267552]
The viability at 28.5 h, 10 µM of the first is lower: 86.2% for the first, 89.5% for the second.

Compared with CCCOC1CCCN(c2nccc(-c3cc(C(=O)O)ccn3)n2)C1 (stereo not drawn) [CBK307703], CS(=O)(=O)c1ccc(-c2cccc(COC3CCN(C(=O)Cc4c[nH]cn4)CC3)c2)cc1 [CBK149515] is lower in viability at 28.5 h, 10 µM: 101% for the first, 90.9% for the second.

First: Cc1c(C=Cc2cc(C(=O)O)c3ccccc3n2)cc(C#N)n1C [CBK295604]
Second: Cc1nn(CCC#N)c(C)c1[C@@H]1C=C[C@@H](NC(=O)NCc2ccccc2)C1 [CBK289174]
The viability at 28.5 h, 10 µM of the first is higher: 104% for the first, 96.8% for the second.

Compared with Cc1ccccc1CN1CCN(CC(=O)Nc2ccccc2C(N)=O)CC1 [CBK270296], COC(=O)c1ccccc1NC(=O)Nc1ccc(N2CCOCC2)c2nonc12 [CBK266830] is lower in viability at 28.5 h, 10 µM: 94.1% for the first, 90.6% for the second.

Going from Cc1cc(C)cc(N(CC(=O)O)S(C)(=O)=O)c1 [CBK263775] to Cc1ccccc1-c1nnc(SC(C)C)n1CCN(C)S(C)(=O)=O [CBK200088], the viability at 28.5 h, 10 µM falls from 111% to 101%.

Going from CC(C)n1c(=O)n(CC(=O)NCCc2ccccc2)c2cccnc21 [CBK283701] to COC(=O)C1=C(C)N(CCc2ccccc2)C(=O)C1(NC(=O)c1ccccc1)C(F)(F)F (stereo not drawn) [CBK267477], the viability at 28.5 h, 10 µM falls from 94.8% to 86%.

First: CC(C)OC(=O)c1cccnc1N1CCN(CCCC(c2ccc(F)cc2)c2ccc(F)cc2)CC1 [CBK025340C]
Second: COc1cc(/C=C/CN2CCC(C(=O)NC(C)c3ccc(F)cc3)CC2)ccc1OC(C)=O (stereo not drawn) [CBK148061]
The viability at 28.5 h, 10 µM of the first is higher: 103% for the first, 90.1% for the second.

Compared with COc1cc(C)cc(OC)c1-c1ncnc(C)c1C [CBK306762], Cc1cc(Cl)cc(Cl)c1OCCCc1c(C)n[nH]c1C [CBK025733C] is lower in viability at 28.5 h, 10 µM: 85.7% for the first, 76.9% for the second.

Compared with O=C(O)c1cccc(NC(=O)c2cccc(S(=O)(=O)N3CCc4ccccc4C3)c2)c1 [CBK265187], O=C(NC(=O)N1CCC2(CC1)NCCc1c2[nH]c2ccc(O)cc12)c1ccccc1 [CBK046936] is lower in viability at 28.5 h, 10 µM: 108% for the first, 87.4% for the second.

Compared with Cc1ccccc1-c1csc2c(=O)[nH]c(N3CCC4(CC3)OCCO4)nc12 [CBK291141], O=C1NC2(CC3CCC2N3Cc2ccco2)Nc2ccccc21 (stereo not drawn) [CBK284446] is lower in viability at 28.5 h, 10 µM: 96.9% for the first, 91.8% for the second.

Compared with COc1ccccc1C(=O)N[C@H]1C[C@@H](c2nc(-c3cnccn3)no2)N(C)C1 [CBK288850], COc1cc(C(=O)N2CCC(N(C)C)C2)ccc1Nc1cncc(-c2cc3ccccc3[nH]2)n1 (stereo not drawn) [CBK161475] is lower in viability at 28.5 h, 10 µM: 96% for the first, 90.6% for the second.

Going from O=C(NCc1cccs1)c1ccc2nc[nH]c2c1 [CBK153320] to O=C(NCc1ccco1)c1ccc2c(c1)OCO2 [CBK262133], the viability at 28.5 h, 10 µM rises from 92.1% to 94.4%.

First: c1c2c(cc3sc(N4CCCCC4)nc13)OCCO2 [CBK287497]
Second: C=CCN(C(=S)NCc1ccc2c(c1)OCO2)C1CCCCC1 [CBK200037]
The viability at 28.5 h, 10 µM of the first is lower: 89.3% for the first, 97.9% for the second.

Compared with O=C(Nc1c(F)cccc1F)N(Cc1cc(F)cc(F)c1)CC1CCNCC1 [CBK049795], O=C(NC1CC1)c1cc(C2CCCN(Cc3cccc(F)c3)C2)no1 (stereo not drawn) [CBK284588] is higher in viability at 28.5 h, 10 µM: 90.5% for the first, 99% for the second.

First: Cn1ncc(C#N)c1NC(=O)C1CC(c2ccc(Cl)c(Cl)c2)=NO1 (stereo not drawn) [CBK267478]
Second: COc1cnc(-c2cnn(C)c2)c(NC(=O)c2cc(C)oc2C)n1 [CBK145218]
The viability at 28.5 h, 10 µM of the first is higher: 93.7% for the first, 93.2% for the second.

Going from O=C(COc1ccccc1)Nc1cccc(N2CCNCC2)c1 [CBK028271T] to C[C@H](Oc1cncc(N2CCNCC2)n1)c1ccccc1Cl [CBK172341G], the viability at 28.5 h, 10 µM rises from 100% to 108%.

Compared with O=C(NC1(c2ccccc2)CCCC1)c1ccc(=O)n(CC(=O)N2CCCCC2)c1 [CBK285631], COc1ccc(S(=O)(=O)N2CCN(C(=O)c3ccco3)CC2)c2ccccc12 [CBK269839] is lower in viability at 28.5 h, 10 µM: 90.5% for the first, 86.8% for the second.

First: CC(=O)NCCNC(=O)c1cnc(-c2ccc(Cl)cc2)c(-c2ccc(O)cc2)c1 [CBK036647]
Second: Nc1ncc(-c2ccc(C(=O)O)cc2)nc1-c1ccc(C(=O)N2CCOCC2)cc1 [CBK084518]
The viability at 28.5 h, 10 µM of the first is higher: 101% for the first, 90.8% for the second.

First: Cc1cc(C(=O)CSc2nnc(-c3ccccc3F)n2CC(C)C)c(C)[nH]1 [CBK297877]
Second: CCn1c(COc2cccc(C)c2)nnc1SCC(=O)c1ccccc1 [CBK267143]
The viability at 28.5 h, 10 µM of the first is lower: 85.1% for the first, 97.4% for the second.

Going from Cc1ccc(CC(C#N)Sc2nc(CN3CCOCC3)nc3ccccc23)cc1 (stereo not drawn) [CBK298321] to CC(C)[C@H](CO)Nc1cncc(-c2cccc3ccccc23)n1 [CBK065501], the viability at 28.5 h, 10 µM rises from 82% to 85.9%.

Going from Nc1nc(Cc2ccc(F)cc2)no1 [CBK028717] to CCOc1ccc(C(=O)Nc2nc(-c3ccc(F)cc3)cs2)cc1 [CBK072020], the viability at 28.5 h, 10 µM falls from 110% to 91%.

First: CCOc1ccccc1CN1CC2CCCN2C[C@@H]1C (stereo partly drawn) [CBK285435]
Second: Cc1cccc([C@H]2CN(C(=O)C3CCCC3)[C@@H]3CCN(C4CCCC4)C[C@H]23)c1 [CBK285529]
The viability at 28.5 h, 10 µM of the first is lower: 94.7% for the first, 118% for the second.

Going from CC(=O)Nc1cccc(-n2nnnc2SC2CCCC2)c1 [CBK305996] to O=C(c1cnc2ccccc2n1)N1CCC(F)CC1 [CBK200264], the viability at 28.5 h, 10 µM falls from 95.3% to 93.4%.

First: COc1c(C)cnc(COC(=O)N2CCOCC2)c1C [CBK200145]
Second: O=C(C[C@@H]1O[C@H](CNCc2cccc(Cl)c2)[C@@H](O)[C@H]1O)N1CCOCC1 [CBK288905]
The viability at 28.5 h, 10 µM of the first is higher: 105% for the first, 77.3% for the second.

Compared with C1CN2CCC1/C(=N\Nc1nnn[nH]1)C2 [CBK019005C], O=C(Nc1ccc(Cl)cc1Cl)C1CC2CCC1C2 (stereo not drawn) [CBK058237] is higher in viability at 28.5 h, 10 µM: 93.8% for the first, 102% for the second.

Going from Nc1ccc(C(=O)Nc2ccc(Nc3cc(-c4cccnc4)ncn3)cc2)cc1 [CBK037823] to O=C(NC(=S)Nc1ccc2oc(-c3ccncc3)nc2c1)c1ccccc1[N+](=O)[O-] [CBK264106], the viability at 28.5 h, 10 µM falls from 94.6% to 87.3%.

Going from N#Cc1cn(S(=O)(=O)c2cccc(C(F)(F)F)c2)nc1N [CBK067225] to O=C(N/N=C/c1ccc(Br)s1)c1cccc([N+](=O)[O-])c1 [CBK261354], the viability at 28.5 h, 10 µM rises from 92.6% to 117%.

Compared with COc1ccc(CCC(C)NC2CCCc3c2[nH]c2ccc([N+](=O)[O-])cc32)cc1 (stereo not drawn) [CBK262876], COc1ccc(N(C(C)C(=O)N/N=C2\C(=O)Nc3ccccc32)S(C)(=O)=O)cc1 (stereo not drawn) [CBK262408] is higher in viability at 28.5 h, 10 µM: 71.6% for the first, 98.5% for the second.

Going from COc1ccc(-c2nn(C)c(=O)c3ccccc23)cc1CNC(=O)c1cc([N+](=O)[O-])ccc1OC [CBK266229] to O=c1[nH]ccn1CCNc1cc(-c2cccc3oc4ccccc4c23)ncn1 [CBK037726], the viability at 28.5 h, 10 µM falls from 116% to 102%.

First: Cn1ccnc1C1(O)CC2CCC(C1)N2C(=O)c1cccs1 (stereo not drawn) [CBK284088]
Second: Cc1nc(-c2cccs2)cc([C@H]2CN3CC[C@H]2C[C@@H]3CNC(=O)c2ccco2)n1 [CBK289127]
The viability at 28.5 h, 10 µM of the first is higher: 94.2% for the first, 86.9% for the second.

Going from CC1(C)CC(=O)C2=C(C1)N=C(Nc1nc3ccccc3o1)NC2c1ccccn1 (stereo not drawn) [CBK269978] to O=c1n(-c2ccccc2)c(=O)n(Cc2ccccn2)n1Cc1ccccn1 [CBK266630], the viability at 28.5 h, 10 µM rises from 88.8% to 98.7%.

Compared with O=S(=O)(NCCSCc1c(Cl)cccc1Cl)c1ccc(Cl)cc1 [CBK265304], COc1ccc(C2Oc3cccnc3N(CCCN(C)C)C2=O)cc1 (stereo not drawn) [CBK007694] is higher in viability at 28.5 h, 10 µM: 91.2% for the first, 101% for the second.

Going from CN(C)CCN(Cc1ccccc1)c1ccccc1 [CBK012223C] to Cc1n[nH]c(C)c1Sc1ccccc1/N=C/c1ccccc1O [CBK262068], the viability at 28.5 h, 10 µM falls from 114% to 93%.

Going from Cc1nn(CC(=O)N(C(C)C)C(C)C)c(=O)c2cc3occc3n12 [CBK283655] to COc1ccc2c(c1)C(C)CC(C)(C)N2C(=O)CSc1nnc(-c2ccco2)n1C (stereo not drawn) [CBK059169], the viability at 28.5 h, 10 µM rises from 98.4% to 102%.

Going from CSc1cccc(-c2cnccc2-n2ccnc2)c1 [CBK177155] to CC(C)[C@@H](CO)Nc1cc(Cl)nc2ccnn12 [CBK037242], the viability at 28.5 h, 10 µM rises from 92.5% to 96.2%.

Same assay, conditions: human, hela cells, % viability, bulk resorufin, single well

In the case of Cc1cc(/C=C2\C(=O)NC(=O)N(Cc3ccccc3Cl)C2=O)c(C)n1-c1ccc(C(=O)O)cc1 [CBK265602], the viability at 28.5 h, 10 µM was 84.9%.
